Tests used:
[1] = test system: tRNA 2′-O-methylation in HeLa cells; experiment: tRNA 2′-O-methylation analysis by RiboMethSeq; assay type: cell-based, human; details: 25 µM DAP, 24 h
Description: (§1) Firefly luciferase from HEK293FT cells transfected with the Fluc-int-UGA construct was immunoprecipitated and digested with trypsin. The MS/MS spectrum of the peptide containing the PTC position and the sequence determination are shown. The upper red and blue sequences indicate the amino acids validated, respectively, by detection of Nter and Cter peptide fragments (b and y ion series). Peptide fragments y6 and y7 clearly identify tryptophan (W) at the PTC position. The black peaks correspond to non-attributed mass-to-charge ratio (m/z) values. […] Readthrough efficiency was determined by measuring luciferase activity in HeLa cells co-transfected with the firefly luciferase construct described in Fig. 1b and with increasing amounts of an expression vector for either FTSJ1 or CTU1 (0.5, 1, or 2 µg). The empty expression vector (E.v.) was used as control. […] The experiment was performed twice and the results of both experiments (Exp1 and Exp2) are shown. c Western blot analysis of FTSJ1 and CTU1. d 2′-O-methylation analysis of tRNA^Trp, tRNA^SER, and tRNA^GLN by RiboMethSeq. […] A molecular weight marker is indicated to the left of each gel. p-values (p) were calculated using Student’s t-test. Source data are provided as a Source Data file.
HeLa cells were incubated with DMSO or DAP before extraction of small RNAs (which include tRNAs). RiboMethSeq analysis of human tRNAs was then performed. […] Although the human targets of FTSJ1 remain poorly characterized, modification of Cm34 in tRNA^Trp has been attributed to FTSJ1 (ref. [41]). […] This is consistent with DAP-dependent inhibition of FTSJ1 activity. The third hit was 2′-O-methylation of tRNA^Ser at position Gm18, attributed to TARBP1 activity.
The detailed protocol and a description of the RiboMethSeq assay are provided elsewhere.

[2] = test system: HeLa cells; experiment: Toxicity assay: adenylate kinase activity in culture medium; assay type: cell-based, human
Procedure: The toxicity assay was performed 24 h after starting cell treatment. The cell culture supernatant was centrifuged at 6000×g for 10 min to pellet cells and cell debris. One-twentieth of the supernatant was then used to measure adenylate kinase activity according to the supplier’s protocol (Lonza Biosciences, Basel, Switzerland).

[3] = test system: HeLa cells; experiment: 2D differential gel electrophoresis (2D-DIGE) of whole proteome; assay type: cell-based, human
[4] = test system: Calu-6 cell tumors in nude mice; experiment: In vivo established Calu-6 tumors: tumor size and p53 western blot; parameters: species or system mouse; details: DAP for 1 week after tumor size about 0.4 cm^3
[5] = biological target: T1, FTSJ1 (Homo sapiens, UniProt Q9UET6); experiment: DAP affinity column chromatography; assay type: binding; details: HeLa cell extract
T1 construct: host or cells: HeLa
T1 sequence (Q9UET6 1-329): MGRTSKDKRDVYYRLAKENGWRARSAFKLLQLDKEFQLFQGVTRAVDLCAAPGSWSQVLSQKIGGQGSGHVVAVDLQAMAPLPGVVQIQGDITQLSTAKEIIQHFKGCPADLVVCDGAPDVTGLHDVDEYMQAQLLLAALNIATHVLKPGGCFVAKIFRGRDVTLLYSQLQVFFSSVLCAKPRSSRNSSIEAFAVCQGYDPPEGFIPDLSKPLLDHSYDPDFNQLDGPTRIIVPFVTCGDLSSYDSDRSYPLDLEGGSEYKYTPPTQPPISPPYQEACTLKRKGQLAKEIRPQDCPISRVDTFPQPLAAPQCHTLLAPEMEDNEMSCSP
Description: as §1
The eluate was analyzed by western blotting for the presence of various proteins, including FTSJ1. […]

`Nc1nc(N)c2[nH]cnc2n1` [DAP, 2,6-diaminopurine] was tested, and the “2′-O-methylation of tRNA^Trp at position 34” value [1] was “Notably affected”, the “Cm32 methylation of tRNA^Gln” value [1] was “reduced Cm32 methylation” and the “Level of tRNA 2′-O-methylation” value [1] was “significantly lower for three tRNAs”. For the same compound, the “Adenylate kinase activity in culture medium” value (from here on “Adenylate kinase activity”) ([2]; DAP 0.39, 24 h, average) was 387040, the “Adenylate kinase activity” value ([2]; DAP 0.39, 24 h, experiment 1) was 426825 and the “Adenylate kinase activity” value ([2]; DAP 0.39, 24 h, experiment 2) was 354564. The “Adenylate kinase activity” value ([2]; DAP 0.39, 24 h, experiment 3) was 379730, the “Adenylate kinase activity” value ([2]; DAP 0.78, 24 h, average) was 423131 and the “Adenylate kinase activity” value ([2]; DAP 0.78, 24 h, experiment 1) was 391755. For the same compound, the “Adenylate kinase activity” value ([2]; DAP 0.78, 24 h, experiment 2) was 521708, the “Adenylate kinase activity” value ([2]; DAP 0.78, 24 h, experiment 3) was 355930 and the “Adenylate kinase activity” value ([2]; DAP 100, 24 h, average) was 360341. The “Adenylate kinase activity” value ([2]; DAP 100, 24 h, experiment 1) was 374460, the “Adenylate kinase activity” value ([2]; DAP 100, 24 h, experiment 2) was 518986 and the “Adenylate kinase activity” value ([2]; DAP 100, 24 h, experiment 3) was 187576. For the same compound, the “Adenylate kinase activity” value ([2]; DAP 300, 24 h, average) was 386608, the “Adenylate kinase activity” value ([2]; DAP 300, 24 h, experiment 1) was 380370 and the “Adenylate kinase activity” value ([2]; DAP 300, 24 h, experiment 2) was 536556. The “Adenylate kinase activity” value ([2]; DAP 300, 24 h, experiment 3) was 242898, the “Adenylate kinase activity” value ([2]; DAP 600, 24 h, average) was 369027 and the “Adenylate kinase activity” value ([2]; DAP 600, 24 h, experiment 1) was 393840. For the same compound, the “Adenylate kinase activity” value ([2]; DAP 600, 24 h, experiment 2) was 349368, the “Adenylate kinase activity” value ([2]; DAP 600, 24 h, experiment 3) was 363874 and the “Adenylate kinase activity” value ([2]; DAP 1200, 24 h, average) was 443419. For the same compound, the “Adenylate kinase activity” value ([2]; DAP 1200, 24 h, experiment 1) was 462690, the “Adenylate kinase activity” value ([2]; DAP 1200, 24 h, experiment 2) was 487071 and the “Adenylate kinase activity” value ([2]; DAP 1200, 24 h, experiment 3) was 380497. For the same compound, the “Adenylate kinase activity” value ([2]; DAP 2400, 24 h, average) was 405551, the “Adenylate kinase activity” value ([2]; DAP 2400, 24 h, experiment 1) was 480750 and the “Adenylate kinase activity” value ([2]; DAP 2400, 24 h, experiment 2) was 416958. For the same compound, the “Adenylate kinase activity” value ([2]; DAP 2400, 24 h, experiment 3) was 318945, the “Pearson correlation coefficient of proteome profiles DAP vs DMSO” value [3] was 0.94 and the “p53 protein in tumors (western blot)” value [4] was “detected in tumors isolated from DAP-fed”. For the same compound, the “Binding to FTSJ1 (affinity column, western blot of eluate)” value [5] was “binds to FTSJ1”.
